Like-named read-outs stand apart in the source and are kept apart here.
Experiments:
PmSiaT [1] = biological target: T1, PmSiaT (Proteus mirabilis, UniProt B4EZY7); assay: nanoDSF thermal shift assay, PmSiaT; type: binding; conditions: for Average 1 / Average 2 / Average 3 / Replicate 1 / Replicate 2 / Replicate 3: PmSiaT Tm; for Average 1: average of experiment 1; for Average 2: average of experiment 2; for Average 3: average of experiment 3; for Replicate 1: experiment 1, second capillary; for Replicate 1 / Replicate 2 / Replicate 3 / Tm 1 / Tm2 / Tm 3 / Tm average overall / ΔTm at 1250 µM: 1.25 mM; for Replicate 2: experiment 2, second capillary; for Replicate 3: experiment 3, second capillary; for Tm 1: experiment 1, first capillary; for Tm2: experiment 2, first capillary; for Tm 3: experiment 3, first capillary; for Tm average overall / ΔTm at 1250 µM: three experiments; for ΔTm at 1250 µM: vs Neu5Ac, read-out: ΔTm average overall
T1 construct: made in house
T1 sequence (B4EZY7 1-496): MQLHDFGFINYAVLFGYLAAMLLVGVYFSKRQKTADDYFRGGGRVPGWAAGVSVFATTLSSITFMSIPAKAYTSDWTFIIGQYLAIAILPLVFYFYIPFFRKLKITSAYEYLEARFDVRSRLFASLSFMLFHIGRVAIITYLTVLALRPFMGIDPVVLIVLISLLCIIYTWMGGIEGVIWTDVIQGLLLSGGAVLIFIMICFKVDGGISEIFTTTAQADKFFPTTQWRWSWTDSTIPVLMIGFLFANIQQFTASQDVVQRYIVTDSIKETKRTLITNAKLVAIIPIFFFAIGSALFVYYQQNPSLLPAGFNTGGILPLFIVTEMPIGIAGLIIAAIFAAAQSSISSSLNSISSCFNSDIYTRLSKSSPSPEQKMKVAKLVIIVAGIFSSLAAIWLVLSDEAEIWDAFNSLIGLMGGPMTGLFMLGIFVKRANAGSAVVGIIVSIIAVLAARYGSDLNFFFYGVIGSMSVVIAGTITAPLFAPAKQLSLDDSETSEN
Method in brief: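 Protein at 2 μM in PBS with 0.0174% (w/v) DDM and ligand at 1.25 mM were heated from 25 to 95 °C at 1 °C/min, with 330/350 nm fluorescence ratio and its first derivative giving Tm. ΔTm is relative to the Neu5Ac Tm, averaged over 3 experiments with 2 capillaries each.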

PmSiaT [2] = biological target: T1, PmSiaT; assay: Isothermal titration calorimetry, PmSiaT; type: binding
Procedure: The binding thermodynamic analysis performed via isothermal titration calorimetry (ITC) provides insights into dissociation constants (Kd) and the binding driving forces of compounds 3a, 3e, and 3f with PmSiaT and SaSiaT.
Isothermal titration calorimetric experiments were performed on an ITC200 instrument (MicroCal, Northampton, USA) at 25 °C using standard instrument settings (reference power of 6 μcal s^–1, stirring speed of 750 rpm, feedback mode high, and filter period of 2 s). Protein solutions were dialyzed against ITC buffer (50 mM Tris–HCl, 150 mM NaCl, with 0.0174% (w/v) DDM, pH 8.0 at 5 °C) prior to the experiments, and all the samples were prepared using the dialysate buffer to minimize dilution effects. Protein concentrations were determined spectrophotometrically with the specific absorbance at 280 nm employing an extinction coefficient of 76,445 mol^–1 cm^–1 for PmSiaT and 75,750 M^–1 cm^–1 for SaSiaT. […] In a typical experiment, a 0.3–1.0 mM inhibitor solution was titrated to a solution containing 30–50 μM of PmSiaT or 13–20 μM of SaSiaT to ensure >90% saturation. Baseline correction, peak integration, and nonlinear regression analysis of experimental data were performed using the NITPIC (version 1.2.2.)[41] and SEDPHAT (version 12.1b)[42] software packages. The stoichiometry parameter was manually constrained to a value of 1. Experiments were performed in triplicate and the 68% confidence intervals from global fitting of three experiments were calculated as an estimate of the experimental error. All the titration curves can be found in Figures S10–S15.

[3] = Metabolic stability in human liver microsomes; type: in vitro ADME; conditions: for microsomal CLint at 1 µM: human liver microsomes, read-out: intrinsic clearance Clint; for Metabolic stability in human microsomes, Exp. 1 / Metabolic stability in human microsomes, Exp. 2: intrinsic clearance, 1 µM compound
Procedure: (§1) The assay was run in a 96-deep well format and solutions were prepared containing microsomes in phosphate buffer. The microsomes employed were from humans, rats, and mice. The reaction was initiated by addition of NADPH after preincubation at 37 °C with test compounds. The reaction was stopped by the addition of acetonitrile (ACN) at six time points (0, 5, 10, 15, 25, and 45 min), the samples were centrifuged, and the supernatant was diluted to determine the loss of compound by LC–MS/MS. Two incubations per compound per species. For further details regarding working concentrations, volumes, and final concentrations at incubation, refer to the supplementary section (Table S6). […]
Metabolic Metabolic Metabolic stability in stability in stability in Plasma-protein human mouse rat In vitro plasma stability binding by RED
Assay/compo microsome microsome microsome (% compound remaining after (% unbound und s s s 23 h) compound, (µL/min/m (µL/min/m (µL/min/m average n=2) g protein) g protein) g protein)
Exp. Exp. Exp. Exp. Exp. Exp. Hum Mou Ra Do Mini Hum Mou Ra […]
Conc. of W orki ng Vol ume i n Fi nal conc. At sol uti on assay incubation
577 m g / m L520 µ L0. […]

[4] = Metabolic stability in mouse liver microsomes; type: in vitro ADME; conditions: for Metabolic stability in mouse microsomes, Exp. 1 / Metabolic stability in mouse microsomes, Exp. 2: intrinsic clearance, 1 µM compound; for microsomal CLint at 1 µM: mouse liver microsomes, read-out: intrinsic clearance Clint
Procedure: as §1
Conc. of W orki ng Vol ume i n Fi nal conc. At
sol uti on assay incubation
577 m g / m L520 µ L0. 5 m g / m L […]
NADPH i n buffe r 7. 5 m M 80 µ L 1 m M

[5] = PmSiaT, experiment 1, vs Neu5Ac, read-out: ΔTm 1
[6] = PmSiaT, experiment 2, vs Neu5Ac, read-out: ΔTm 2
[7] = nanoDSF, relative to Neu5Ac, ligand 1.25 mM, <−2.0 °C nonbinder, read-out: PmSiaT ΔTm
[8] = PmSiaT, experiment 3, vs Neu5Ac, read-out: ΔTm 3

Row | SMILES | Average 1 (PmSiaT [1]) [°C] | Average 2 (PmSiaT [1]) [°C] | Average 3 (PmSiaT [1]) [°C] | Replicate 1 (PmSiaT [1]) [°C] | Replicate 2 (PmSiaT [1]) [°C] | Replicate 3 (PmSiaT [1]) [°C] | Tm 1 (PmSiaT [1]; PmSiaT) [°C] | ΔTm (PmSiaT [1]; [5]) [°C] | Tm2 (PmSiaT [1]; PmSiaT) [°C] | ΔTm (PmSiaT [1]; [6]) [°C] | Tm 3 (PmSiaT [1]; PmSiaT) [°C] | Tm average overall (PmSiaT [1]; PmSiaT) [°C] | ΔTm at 1250 µM (PmSiaT [1]; PmSiaT) [°C] | ΔTm (PmSiaT [1]; [7]) [°C] | PmSiaT -TΔS° (PmSiaT [2]; ITC) [kcal/mol] | PmSiaT ΔG° (PmSiaT [2]; ITC) [kcal/mol] | PmSiaT ΔH° (PmSiaT [2]; ITC) [kcal/mol] | Kd (PmSiaT [2]; PmSiaT Kd, ITC, 25 °C) [µM] | Kd (PmSiaT [2]; PmSiaT Kd, ITC, Table S4) [µM] | microsomal CLint at 1 µM [3] [µL/min/mg] | also measured
1 | CC(=O)NC1C(OCc2ccccc2)CC(O)(C(=O)O)OC1C(O)C(O)CO (stereo not shown) [Compound 3a] | 54.6 | 53.8 | 54.1 | 54.6 | 53.9 | 54.2 | 54.5 | 5.6 | 53.7 | 4.6 | 54.0 | 54.2 | 5 | 4.8 ± 0.5 | -13.9 | -6.91 | 7 | 9 ± 3.2 | 8.77 | < 10 | Metabolic stability in human microsomes, Exp. 1 [3]: < 10 µL/min/mg protein; Metabolic stability in human microsomes, Exp. 2 [3]: < 10 µL/min/mg protein; Metabolic stability in mouse microsomes, Exp. 1 [4]: < 10 µL/min/mg protein; Metabolic stability in mouse microsomes, Exp. 2 [4]: < 10 µL/min/mg protein; microsomal CLint at 1 µM [4]: < 10 µL/min/mg
2 | CC(=O)NC1C(OCc2cc(F)cc(F)c2)CC(O)(C(=O)O)OC1C(O)C(O)CO (stereo not shown) [Compound 3e] | 56.7 | 55.2 | 56.1 | 56.8 | 55.2 | 56.1 | 56.7 | 7.7 | 55.2 | 6 | 56.0 | 56.0 | 6.8 | 6.8 ± 0.9 | -15.7 | -7.12 | 8.58 | 6.2 ± 2.8 | 6.07 | < 10 | ΔTm (PmSiaT [1]; [8]): 6.8 °C; Metabolic stability in human microsomes, Exp. 1 [3]: < 10 µL/min/mg protein; Metabolic stability in human microsomes, Exp. 2 [3]: < 10 µL/min/mg protein; Metabolic stability in mouse microsomes, Exp. 1 [4]: < 10 µL/min/mg protein; Metabolic stability in mouse microsomes, Exp. 2 [4]: < 10 µL/min/mg protein; microsomal CLint at 1 µM [4]: < 10 µL/min/mg
3 | CC(=O)NC1C(OCc2cc(Br)cc(Br)c2)CC(O)(C(=O)O)OC1C(O)C(O)CO (stereo not shown) [Compound 3f] |  | 62.8 | 63.7 | 64.2 | 63.0 | 63.6 | 63.9 | 15 | 62.6 | 13.6 | 63.8 | 63.5 |  | 14.3 | -17.8 | -8.96 | 8.87 | 0.27 ± 0.14 | 0.272 | < 10 | affinity increase of binding for PmSiaT (PmSiaT [2]; compared to the natural substrate Neu5Ac): 180 fold; Metabolic stability in human microsomes, Exp. 1 [3]: < 10 µL/min/mg protein; Metabolic stability in human microsomes, Exp. 2 [3]: < 10 µL/min/mg protein; Metabolic stability in mouse microsomes, Exp. 1 [4]: < 10 µL/min/mg protein; Metabolic stability in mouse microsomes, Exp. 2 [4]: < 10 µL/min/mg protein; microsomal CLint at 1 µM [4]: < 10 µL/min/mg
4 | CC(=O)N[C@H]1[C@H]([C@H](O)[C@H](O)CO)OC(O)(C(=O)O)C[C@@H]1O (stereo partly shown) [Neu5Ac, 5-N-acetyl neuraminic acid, reference compound] | 49.0 | 49.2 | 49.3 | 48.8 | 49.2 | 49.3 | 49.2 | 0 | 49.1 | 0 | 49.3 | 49.1 | 0 | 0 | -12.6 | -5.86 | 6.72 |  |  |  | ΔTm (PmSiaT [1]; [8]): 0 °C; Kd (PmSiaT [2]): 50 ± 9 µM
